Laboratory results taken from patent publication USRE47084E1, “Oral medicinal product with modified release of at least one active principle in multimicrocapsular form” (FLAMEL IRELAND LIMITED, priority 2003, dated 2018).
Values after ≈ are worked out from the molar mass of the structure shown.

experiment: Solubility of the active principles; assay type: physicochemical

| SMILES | solubility [µg/mL] |
| --- | --- |
| Nc1nc2c(ncn2COCCO)c(=O)[nH]1 [Acyclovir] | 10000 (≈ 44400 µM) |
| Cc1c(OCC(F)(F)F)ccnc1C[S+]([O-])c1nc2ccccc2[nH]1 (stereo not shown) [Lansoprazole] | 50 (≈ 135 µM) |
| O=C1CN(/N=C/c2ccc([N+](=O)[O-])o2)C(=O)N1 [Nitrofurantoin] | 300 (≈ 1260 µM) |
| CC(=O)S[C@@H]1CC2=CC(=O)CC[C@]2(C)[C@H]2CC[C@@]3(C)[C@@H](CC[C@@]34CCC(=O)O4)[C@H]12 [Spironolactone] | 20 (≈ 48 µM) |
